# Measurements as given in patent publication US9938258B2 (Karyopharm Therapeutics Inc., priority 2012, dated 2018).
# Where two headings read alike, the source gives them in different places.
# Columns and labels:
# Z138 cells = experiment: MTT cell proliferation assay, Z138; format: cell-based; settings: read-out: MTT Assay IC50, Z138
# Procedure: (§1) The MTT cell proliferation assay was used to study the cytotoxic properties of the compounds. The assay was performed according to the method described by Roche Molecular Biochemicals, with minor modifications. The assay is based on the cleavage of the tetrazolium salt, MTT, in the presence of an electron-coupling reagent. The water-insoluble formazan salt produced must be solubilized in an additional step. Cells grown in a 96-well tissue culture plate were incubated with the MTT solution for approximately 4 hours. After this incubation period, a water-insoluble formazan dye formed. After solubilization, the formazan dye was quantitated using a scanning multi-well spectrophotometer (ELISA reader). […] The cells were seeded at 5,000-10,000 cells in each well of 96-well plate in 100 μL of fresh culture medium and were allowed to attach overnight. The stock solutions of the compounds were diluted in 100 μL cell culture medium to obtain eight concentrations of each test compound, ranging from 1 nM to 30 μM. […] All optical densities were measured at 490 nm using a Vmax Kinetic Microplate Reader (Molecular Devices). In most cases, the assay was performed in duplicate and the results were presented as a mean percent inhibition to the negative control±SE. The following formula was used to calculate the percent of inhibition: Inhibition (%)=(1-(ODo/OD)) ×100.
# (§2) The compounds were tested against MS751, Z138 and 3T3 cells. The MS751 cell line is derived from a metastasis to lymph node of human cervix from a patient diagnosed with squameous cell carcinoma of the cervix. The Z138 cell line is a mature B-cell acute lymphoblastic leukemia cell line derived from a patient with chronic lumphocytic leukemia. 3T3 cells are standard fibroblast cells; they were originally isolated from Swiss mouse embryo tissue.
# 3T3 cells = experiment: MTT cell proliferation assay, 3T3; format: cell-based, mouse; settings: read-out: MTT Assay IC50, 3T3
# Procedure: as §1, §2
# MS751 cells = experiment: MTT cell proliferation assay, MS751; format: cell-based, human; settings: read-out: MTT Assay IC50, MS751
# Procedure: as §1, §2
# [1] = Homo sapiens, Z-138, Z138 cells, approximately 64-72 hours incubation
# [2] = Mus musculus, NIH3T3, 3T3 cells, approximately 64-72 hours incubation
# [3] = Homo sapiens, MS751, MS751 cells, approximately 64-72 hours incubation
# [4] = Z138 cells, approximately 64-72 hours incubation
# [5] = 3T3 cells, approximately 64-72 hours incubation
# [6] = MS751 cells, approximately 64-72 hours incubation
# [7] = Homo sapiens, Z-138, Z138 cells, eight concentrations 1 nM to 30 μM, incubation approximately 64-72 hours
# [8] = Mus musculus, NIH3T3, 3T3 cells, eight concentrations 1 nM to 30 μM, incubation approximately 64-72 hours
# [9] = Homo sapiens, MS751, MS751 cells, eight concentrations 1 nM to 30 μM, incubation approximately 64-72 hours
SMILES,IC50 (Z138 cells; [7]),IC50 (3T3 cells; [8]),IC50 (MS751 cells; [9]),also measured
"CC(=O)c1ccc(-c2cc(Cl)c3c(c2)CC(CNC(=O)/C=C/c2ccc(N)nc2)O3)s1 (single isomer, unassigned) [Compound 308, (E)-N-((5-(5-acetylthiophen-2-yl)-7-chloro-2,3-dihydrobenzofuran-2-yl)methyl)-3-(6-aminopyridin-3-yl)acrylamide]",–,–,–,IC50 (Z138 cells; [1]): 0.1 to 5 µM; IC50 (3T3 cells; [2]): 5 to 30 µM; IC50 (MS751 cells; [3]): 0.1 to 5 µM
"CC(=O)c1ccc(-c2cc(Cl)c3c(c2)CC(CNC(=O)/C=C/c2ccc(N)nc2)O3)s1 (single isomer, unassigned) [Compound 309, (E)-N-((5-(5-acetylthiophen-2-yl)-7-chloro-2,3-dihydrobenzofuran-2-yl)methyl)-3-(6-aminopyridin-3-yl)acrylamide]",–,–,–,IC50 (Z138 cells; [4]): < 0.1 µM; IC50 (3T3 cells; [5]): 5 to 30 µM; IC50 (MS751 cells; [6]): 0.1 to 5 µM
"CC(=O)c1ccc(-c2cc(Cl)c3c(c2)CC(CNC(=O)/C=C\c2cccnc2)O3)s1 (single isomer, unassigned) [Compound 312, (Z)-N-((5-(5-acetylthiophen-2-yl)-7-chloro-2,3-dihydrobenzofuran-2-yl)methyl)-3-(pyridin-3-yl)acrylamide]",–,–,–,IC50 (Z138 cells; [1]): 0.1 to 5 µM; IC50 (3T3 cells; [5]): 5 to 30 µM; IC50 (MS751 cells; [6]): 5 to 30 µM
"CC(=O)c1ccc(-c2cc(Cl)c3c(c2)CC(CNC(=O)/C=C\c2cccnc2)O3)s1 (single isomer, unassigned) [Compound 313, (Z)-N-((5-(5-acetylthiophen-2-yl)-7-chloro-2,3-dihydrobenzofuran-2-yl)methyl)-3-(pyridin-3-yl)acrylamide]",–,–,–,IC50 (Z138 cells; [4]): 0.1 to 5 µM; IC50 (3T3 cells; [5]): > 30 µM; IC50 (MS751 cells; [6]): 0.1 to 5 µM
"CC(=O)c1ccc(-c2cc(Cl)c3c(c2)CC(CNC(=O)/C=C/c2cccnn2)O3)s1 (single isomer, unassigned) [Compound 317, (E)-N-((5-(5-acetylthiophen-2-yl)-7-chloro-2,3-dihydrobenzofuran-2-yl)methyl)-3-(pyridazin-3-yl)acrylamide]",–,–,–,IC50 (Z138 cells; [1]): 0.1 to 5 µM; IC50 (3T3 cells; [2]): > 30 µM; IC50 (MS751 cells; [3]): 0.1 to 5 µM
"CC(=O)c1ccc(-c2cc(Cl)c3c(c2)CC(CNC(=O)/C=C/c2cccnn2)O3)s1 (single isomer, unassigned) [Compound 318, (E)-N-((5-(5-acetylthiophen-2-yl)-7-chloro-2,3-dihydrobenzofuran-2-yl)methyl)-3-(pyridazin-3-yl)acrylamide]",–,–,–,IC50 (Z138 cells; [4]): 0.1 to 5 µM; IC50 (3T3 cells; [5]): > 30 µM; IC50 (MS751 cells; [6]): 0.1 to 5 µM
"Cc1ccc(-c2cc(Cl)c3c(c2)CC(CNC(=O)/C=C/c2cccnc2)O3)cc1 (stereo not drawn) [Compound 15, (E)-N-((7-chloro-5-p-tolyl-2,3-dihydrobenzofuran-2-yl)methyl)-3-(pyridin-3-yl) acrylamide]",0.1 to 5 µM,5 to 30 µM,0.1 to 5 µM,–
"O=C(/C=C/c1cccnc1)NCC1Cc2cc(-c3ccccc3F)cc(Cl)c2O1 (stereo not drawn) [Compound 18, (E)-N-((7-chloro-5-(2-fluorophenyl)-2,3-dihydrobenzofuran-2-yl)methyl)-3-(pyridin-3-yl)acrylamide]",0.1 to 5 µM,5 to 30 µM,0.1 to 5 µM,–
"O=C(/C=C/c1cccnc1)NCC1Cc2cc(-c3cc(F)c(F)c(F)c3)cc(Cl)c2O1 (stereo not drawn) [Compound 21, (E)-N-((7-chloro-5-(3,4,5-trifluorophenyl)-2,3-dihydrobenzofuran-2-yl)methyl)-3-(pyridin-3-yl)acrylamide]",0.1 to 5 µM,> 30 µM,0.1 to 5 µM,–
"CC(=O)c1ccc(-c2cc(Cl)c3c(c2)CC(CNC(=O)/C=C/c2ccncc2)O3)s1 (stereo not drawn) [Compound 24, (E)-N-((5-(5-acetylthiophen-2-yl)-7-chloro-2,3-dihydrobenzofuran-2-yl)methyl)-3-(pyridin-4-yl)acrylamide]",> 30 µM,> 30 µM,> 30 µM,–
CC(=O)c1ccc(-c2cc(Cl)c3c(c2)CC(CN)O3)s1 (stereo not drawn) [Compound 26],5 to 30 µM,5 to 30 µM,5 to 30 µM,–
"CC(=O)c1ccc(-c2cc(Cl)c3c(c2)CC(CNC(=O)/C=C/c2cccnc2)O3)s1 (stereo not drawn) [Compound 27, (E)-N-((5-(5-acetylthiophen-2-yl)-7-chloro-2,3-dihydrobenzofuran-2-yl)methyl)-3-(pyridin-3-yl)acrylamide]",< 0.1 µM,0.1 to 5 µM,< 0.1 µM,–
"CC(=O)c1ccc(-c2cc(Cl)c3c(c2)CC(CNC(=O)/C=C/c2ccc[n+]([O-])c2)O3)s1 (stereo not drawn) [Compound 28, (E)-N-((5-(5-acetylthiophen-2-yl)-7-chloro-2,3-dihydrobenzofuran-2-yl)methyl)-3-(pyridine-1-oxide-3-yl)acrylamide]",> 30 µM,> 30 µM,> 30 µM,–
O=C(/C=C/c1cccnc1)NCC1Cc2cc(-c3ccc(C(=O)N4CCOCC4)cc3)cc(Cl)c2O1 (stereo not drawn) [Compound 29],< 0.1 µM,0.1 to 5 µM,< 0.1 µM,–
"O=C(/C=C/c1cccnc1)NCC1Cc2cc(-c3cc(Cl)cc(Cl)c3)cc(Cl)c2O1 (stereo not drawn) [Compound 32, (E)-N-((7-chloro-5-(3,5-dichlorophenyl)-2,3-dihydrobenzofuran-2-yl)methyl)-3-(pyridin-3-yl)acrylamide]",0.1 to 5 µM,> 30 µM,0.1 to 5 µM,–
"Cc1noc(C)c1-c1cc(Cl)c2c(c1)CC(CNC(=O)/C=C/c1cccnc1)O2 (stereo not drawn) [Compound 35, (E)-N-((7-chloro-5-(3,5-dimethylisoxazol-4-yl)-2,3-dihydrobenzofuran-2-yl)methyl)-3-(pyridin-3-yl)acrylamide]",< 0.1 µM,0.1 to 5 µM,0.1 to 5 µM,–
"CC(=O)c1ccc(-c2cc(Cl)c3c(c2)CC(CNC(=O)/C=C/c2ccccc2)O3)s1 (stereo not drawn) [Compound 38, N-((5-(5-acetylthiophen-2-yl)-7-chloro-2,3-dihydrobenzofuran-2-yl)methyl)cinnamamide]",> 30 µM,> 30 µM,> 30 µM,–
"COc1cccc(-c2cc(Cl)c3c(c2)CC(CNC(=O)/C=C/c2cccnc2)O3)c1F (stereo not drawn) [Compound 39, (E)-N-((7-chloro-5-(2-fluoro-3-methoxyphenyl)-2,3-dihydrobenzofuran-2-yl)methyl)-3-(pyridin-3-yl)acrylamide]",0.1 to 5 µM,0.1 to 5 µM,0.1 to 5 µM,–
"O=C(/C=C/c1cccnc1)NCC1Cc2cc(-c3ccco3)cc(Cl)c2O1 (stereo not drawn) [Compound 42, (E)-N-((7-chloro-5-(furan-2-yl)-2,3-dihydrobenzofuran-2-yl)methyl)-3-(pyridin-3-yl)acrylamide]",0.1 to 5 µM,5 to 30 µM,0.1 to 5 µM,–
"CC(=O)c1ccc(-c2cc(Cl)c3c(c2)CC(CNC(=O)/C=C/c2ccc(Cl)nc2)O3)s1 (stereo not drawn) [Compound 45, (E)-N-((5-(5-acetylthiophen-2-yl)-7-chloro-2,3-dihydrobenzofuran-2-yl)methyl)-3-(6-chloropyridin-3-yl)acrylamide]",> 30 µM,> 30 µM,> 30 µM,–
"O=C(/C=C/c1cccnc1)NCC1Cc2cc(-c3cc(C(F)(F)F)cc(C(F)(F)F)c3)cc(Cl)c2O1 (stereo not drawn) [Compound 49, (E)-N-((5-(3,5-bis(trifluoromethyl)phenyl)-7-chloro-2,3-dihydrobenzofuran-2-yl)methyl)-3-(pyridin-3-yl)acrylamide]",0.1 to 5 µM,0.1 to 5 µM,0.1 to 5 µM,–
"CCOC(=O)c1cccc(-c2cc(Cl)c3c(c2)CC(CNC(=O)/C=C/c2cccnc2)O3)c1 (stereo not drawn) [Compound 52, (E)-ethyl 3-(7-chloro-2-((3-(pyridin-3-yl)acrylamido)methyl)-2,3-dihydrobenzofuran-5-yl)benzoate]",0.1 to 5 µM,0.1 to 5 µM,0.1 to 5 µM,–
"O=C(/C=C/c1cccnc1)NCC1Cc2cc(-c3ccc(Cl)cc3F)cc(Cl)c2O1 (stereo not drawn) [Compound 55, (E)-N-((7-chloro-5-(4-chloro-2-fluorophenyl)-2,3-dihydrobenzofuran-2-yl)methyl)-3-(pyridin-3-yl)acrylamide]",0.1 to 5 µM,> 30 µM,0.1 to 5 µM,–
"O=C(/C=C/c1cccnc1)NCC1Cc2cc(-c3cccc(CO)c3)cc(Cl)c2O1 (stereo not drawn) [Compound 58, (E)-N-((7-chloro-5-(3-(hydroxymethyl)phenyl)-2,3-dihydrobenzofuran-2-yl)methyl)-3-(pyridin-3-yl)acrylamide]",0.1 to 5 µM,0.1 to 5 µM,0.1 to 5 µM,–
